Values quoted from earlier work as cited in patent publication US20110038802A1, “METHOD OF DETERMINING ALANINE TRANSAMINASE (ALT) ACTIVITY BY 13C-MR DETECTION USING HYPERPOLARISED 13C-PYRUVATE” (priority 2008, published 2011).

Conditions: human full blood, 37° C.

T1 relaxation: about 42 s
Compound: CC(=O)C(=O)O [^13C1-pyruvate, sodium ^13C1-pyruvate]
